Data on 17 molecules can be found in paper PMC12005349 (Journal of Cellular and Molecular Medicine, 2025).

Data set [1] addresses T1, TGFβRI/TGFβRII receptor complex (Homo sapiens, UniProt P36897+P37173).
T1 construct: host or cells: HEK293T CAGA12-Luc/TK Renilla reporter cells
Put plainly: Dual-Luciferase reporter (CAGA12-Luc/TK Renilla) luminescence assay of TGF-β signalling on HEK293T cells. The note with it: PI 500 nM to 50 μM, 60 min, then TGF-β 6 h, 4-parameter logistic regression, 4 biological replicates. It counts as cell-based. From the text:
The cell line stably expresses CAGA12‐Luc, a Smad3/Smad4‐dependent reporter containing 12 copies of CAGAC motifs derived from the PAI‐1 promoter. This reporter protein is expressed and secreted by HEK293T cells upon TGFβRI/TGFβRII activation. The cell line also contains a Renilla reporter driven by a thymidine kinase (TK) promoter that acts as an internal control.
The presence of the described reporter activity allows HEK293T cells to be used to measure TGF‐β signalling activity using luciferase assays. The Promega Dual‐Luciferase Reporter Assay System (Promega, cat. no E1910) kit was used for assays on the HEK293T cell line. The following procedure was carried out according to manufacturer protocols. Cells were seeded in 96‐well plates coated with poly‐d‐lysine (PDL), in a DMEM 10% FBS medium. All experiments were carried out with the use of 4 biological replicates per group. After 24 h of incubation, the culture medium was removed and the cells were washed three times with PBS. […] After incubation, an additional volume of fresh blank medium or medium supplemented with TGF‐β was added to the wells. The cells were incubated again for 6 h, after which the contents of the wells were removed and the wells rinsed again with PBS. The cells were stored at −80°C until measurement.
Prior to measurement, cells were lysed using a passive lysis buffer. The lysate from each well was added to corresponding wells on a new 96‐well plate containing a reagent that induces luminescence of the first reporter protein, which is expressed by the HEK293T cells upon TGF‐β receptor activation. Luminescence was read using a plate reader with a luminescence measurement function (Victor EX, Perkin Elmer), following the kit manufacturer's instructions. After the measurement, a reagent that activates the second reporter protein (constitutively expressed by HEK293T cells, serves as an internal control) was added to each well, and the luminescence reading was repeated. All luciferase‐based assays were conducted using 4 biological replicates (cell cultures seeded and cultured independently) for each inhibitor and concentration tested.
IC50 values were calculated using 4‐parameter logistic regression in the Prism 9.0 (GraphPad) software. […] All measured results were considered significant at α level = 0.05. The α level is the threshold value against which p‐values are measured. p < 0.05 was considered to indicate a statistically significant difference.

The next data set relates to HEK293T cells. The data set can be described thus: Cytotoxicity by flow cytometry (FITC Annexin V / propidium iodide) on HEK293T cells. It counts as cell-based, human. As to conditions: for Viability (%): 20 µM. The procedure:
HEK293T cells were seeded in 12‐well plates coated with poly‐d‐lysine (PDL) in a DMEM 10% FBS medium. After 24 h of incubation, the culture medium was removed and the cells were washed three times with PBS. Next, either empty fresh culture medium, medium with the addition of a commercial small molecule (SD‐208 or SB‐525334), or one of the novel peptides TGF‐β inhibitors was added. After 24 h of incubation, cells were removed from the wells and counted using a haemocytometer. Cells were prepared for flow cytometry using the Pharmingen FITC Annexin V Apoptosis Detection Kit I (BD Biosciences, cat. no 556547). 100,000 cells from each sample were suspended in a binding buffer and then stained with FITC and/or propidium iodide. After a 15‐min incubation, the fluorescence profiles of each cell population were measured using a flow cytometer (CytoFLEX, Beckman Coulter), identifying the proportion of cells in apoptosis and necrosis. The data were visualised and quantified by constructing a dot plot using the CytExpert (Beckman Coulter) software.

The subject of a further data set is TGFβRI. The arrangement: method as in 2 sources, ref 51 = [51]; 51 SB431542 | Activin/BMP/TGF‐Beta Pathway Inhibitor | […] Technologies [Internet] , https://www.stemcell.com/products/sb431542.html . ||| ref 52 = [52]; 52 selleckchem.com [Internet] , “SD‐208 | 99.67%(HPLC) | TGF‐Beta/Smad Inhibitor” , https://www.selleckchem.com/products/sd‐208.html . The note with it: cited from earlier work.

No end group written: not given here.

T1 sequence (P36897 34-503): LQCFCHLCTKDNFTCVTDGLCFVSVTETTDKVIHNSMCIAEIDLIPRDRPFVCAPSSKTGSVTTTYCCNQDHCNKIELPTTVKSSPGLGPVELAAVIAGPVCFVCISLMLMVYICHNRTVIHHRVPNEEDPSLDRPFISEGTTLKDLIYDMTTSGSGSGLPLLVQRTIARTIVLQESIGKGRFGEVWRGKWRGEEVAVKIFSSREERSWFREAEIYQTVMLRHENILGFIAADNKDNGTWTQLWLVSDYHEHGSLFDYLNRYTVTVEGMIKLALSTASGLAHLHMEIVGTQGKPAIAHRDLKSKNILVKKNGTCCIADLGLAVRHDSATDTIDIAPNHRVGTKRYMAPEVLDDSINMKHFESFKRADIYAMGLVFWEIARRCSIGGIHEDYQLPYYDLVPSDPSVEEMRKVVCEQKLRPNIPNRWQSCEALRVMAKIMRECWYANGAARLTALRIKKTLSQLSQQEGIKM
T1 sequence (P37173 23-567): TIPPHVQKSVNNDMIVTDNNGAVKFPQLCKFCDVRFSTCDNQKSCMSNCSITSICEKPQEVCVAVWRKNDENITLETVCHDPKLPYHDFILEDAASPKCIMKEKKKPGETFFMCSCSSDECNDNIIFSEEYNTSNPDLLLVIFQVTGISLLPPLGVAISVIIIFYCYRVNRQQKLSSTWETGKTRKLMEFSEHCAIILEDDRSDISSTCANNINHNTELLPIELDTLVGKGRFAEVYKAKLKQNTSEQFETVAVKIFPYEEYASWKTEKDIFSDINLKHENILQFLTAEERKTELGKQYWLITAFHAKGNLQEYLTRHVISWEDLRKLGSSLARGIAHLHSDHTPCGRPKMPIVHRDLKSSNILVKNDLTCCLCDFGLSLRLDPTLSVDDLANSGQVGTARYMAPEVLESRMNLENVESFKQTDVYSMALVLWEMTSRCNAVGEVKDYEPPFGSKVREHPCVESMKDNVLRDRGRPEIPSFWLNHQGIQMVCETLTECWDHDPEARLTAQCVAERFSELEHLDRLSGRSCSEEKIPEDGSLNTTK

For WSSDTQHSR [2_9], it took 25 µM to reach half-maximal inhibition in data set [1] (IC50). Same read-out and setting: then LDAAYCFRN [1_2], with 44 µM; and CPYLWSSDT [2_5], with 21.9 µM. Consider ALDAAYCFR [1_1], for which the IC50 – broadly, the concentration needed to halve the response being measured – in data set [1] was found to be 43.3 µM. In addition, the “Viability (%)” value with HEK293T cells is recorded as 88.7%. In the case of TSLDASIIWAMMQN [P144], the “Viability (%)” value in the data set with HEK293T cells turned out to be 82.2%. In addition, the “Effect on HEK293T cell viability compared to untreated cells” value in the data set on HEK293T cells (20 μM, 24 h, flow cytometry) was “none of the tested inhibitors reduced cell viability to a statistically significant degree”. In data set [1], ACPYLWSSD [2_4] had an IC50 of 27.7 µM. Still for that read-out and setting: next, AYCFRNVQD [1_5]: 24.2 µM. The same measure, in the same setting: next, AGACPYLWS [2_2]: 29.3 µM. Molecule DAAYCFRNV [1_3] yielded an IC50 in data set [1] of 42.4 µM. As to `NC(=O)c1ccc(-c2nc(-c3ccc4c(c3)OCO4)c(-c3ccccn3)[nH]2)cc1` [SB-431542], in the data set with TGFβRI, the half-inhibitory concentration (IC50) is 0.094 µM. PYLWSSDTQ [2_6] displayed an IC50 in data set [1] of 25.7 µM. Still for that read-out and setting: then LWSSDTQHS [2_8], with 27.4 µM; and AAYCFRNVQ [1_4], with 57.2 µM.

GACPYLWSS [2_3] yielded a half-inhibitory concentration (IC50) in data set [1] of 23.6 µM. The “Viability (%)” value in the data set on HEK293T cells came out at 86.4%. As for `Cc1cccc(-c2[nH]c(C(C)(C)C)nc2-c2ccc3nccnc3c2)n1` [SB-525334, 6‐[2‐tert‐Butyl‐5‐(6‐methyl‐pyridin‐2‐yl)‐1H‐imidazol‐4‐yl]‐quinoxaline], in the data set on HEK293T cells, the “Viability (%)” value is 86.9%. In turn, YLWSSDTQH [2_7] showed a 50% inhibitory concentration (IC50) in data set [1] of 20.8 µM. `Fc1ccc(Cl)cc1-c1nc(Nc2ccncc2)c2nccnc2n1` [SD-208]: the “Viability (%)” value in the data set on HEK293T cells is given as 87.1%. Moreover, the IC50 in the data set on TGFβRI was […].
